Measured values: US12207654B2, “Bactericidal agent for agricultural or horticultural use, plant disease control method, and product for plant disease control use” (Kureha Corporation, priority 2019, dated 2025)
“And” between values parts separate entries of the source, which are not always exact repeats. Equal values may be shown once.

What was measured:
[1] = system: Colletotrichum lindemuthianum; test: In vitro antimicrobial activity test in 96-well microplate (absorbance at 620 nm); type: cell-based; conditions: used alone
[2] = system: Pyrenophora graminea; test: In vitro antimicrobial activity test on PDA plate media (colony diameter); type: cell-based; conditions: used alone
[3] = system: Cercospora beticola; test: In vitro antimicrobial activity test in 96-well microplate (absorbance at 620 nm); type: cell-based; conditions: used alone
[4] = system: Pyrenophola teres; test: In vitro antimicrobial activity test on PDA plate media (colony diameter); conditions: read-out: Actual fungal growth inhibition rate (%)
[5] = system: Fusarium fujikuroi; test: as above; type: cell-based; conditions: Fusarium fujikuroi, used alone, read-out: Actual fungal growth inhibition rate (%)
[6] = system: wheat leaf rust (Puccinia recondita); test: Controlling effect test against wheat leaf rust (foliar spray on potted wheat seedlings); type: in vivo; conditions: sprayed alone
[7] = system: Alternaria alternata apple pathotype; test: In vitro antimicrobial activity test on PDA plate media (colony diameter); type: cell-based; conditions: used alone
[8] = system: Glomerella cingulata; test: as above; type: cell-based; conditions: used alone
[9] = system: Gaeumannomyces graminis; test: as above; type: cell-based; conditions: used alone
[10] = system: Fusarium graminearum; test: microbe, parasite or virus in culture; type: cell-based; conditions: Fusarium graminearum, read-out: Actual fungal growth inhibition rate (%)

Cc1cccc(-n2nnn(C)c2=O)c1COc1ccn(-c2ccc(Cl)cc2)n1 [Metyltetraprole, metyltetraprole]
Actual growth inhibition rate ([1]; 0.08 ppm): 6% | Actual growth inhibition rate ([1]; 0.4 ppm): 73% | Actual growth inhibition rate ([1]; 2.0 ppm): 91% | Actual fungal growth inhibition rate (%) ([2]; 0.001 ppm): 0% | Actual growth inhibition rate ([3]; 0.08 ppm): 72%

COC(=O)C(O)(Cn1cncn1)c1ccc(Oc2ccc(Cl)cc2)cc1Cl (centres unmarked) [Azole derivative I-1, methyl 2-hydroxy-2-(2-chloro-4-(4-chlorophenoxy)phenyl)-3-(1H-1,2,4-triazole-1-yl)propanoate]
inhibition at 0.25 ppm [4]: 48% | inhibition at 0.1 ppm ([1]; Colletotrichum lindemuthianum, 0.10 ppm, read-out: Actual growth inhibition rate): 0% | inhibition at 0.01 ppm ([5]; 0.01 ppm): 0% | inhibition at 0.03 ppm ([5]; 0.03 ppm): 4% | inhibition at 0.5 ppm ([5]; 0.50 ppm): 59% | Actual controlling rate ([6]; 0.63 g/ha): 16% and 11% | Actual controlling rate ([6]; 1.25 g/ha): 40% and 67% | Actual controlling rate ([6]; 2.5 g/ha): 83% and 98% | inhibition at 0.01 ppm ([7]; Alternaria alternata, 0.01 ppm, read-out: Actual fungal growth inhibition rate (%)): 0% | inhibition at 0.03 ppm ([7]; Alternaria alternata, 0.03 ppm, read-out: Actual fungal growth inhibition rate (%)): 0% | Actual fungal growth inhibition rate (%) ([7]; 0.13 ppm): 1% | inhibition at 0.01 ppm ([8]; Colletotrichum gloeosporioides, 0.01 ppm, read-out: Actual fungal growth inhibition rate (%)): 0% | inhibition at 0.03 ppm ([8]; Colletotrichum gloeosporioides, 0.03 ppm, read-out: Actual fungal growth inhibition rate (%)): 9% | inhibition at 0.13 ppm ([8]; Colletotrichum gloeosporioides, 0.13 ppm, read-out: Actual fungal growth inhibition rate (%)): 49% | inhibition at 0.5 ppm ([8]; Colletotrichum gloeosporioides, 0.50 ppm, read-out: Actual fungal growth inhibition rate (%)): 77% | Actual fungal growth inhibition rate (%) ([8]; 0.50 ppm): 75% | inhibition at 0.03 ppm ([9]; Gaeumannomyces graminis, 0.03 ppm, read-out: Actual fungal growth inhibition rate (%)): 31% | inhibition at 0.13 ppm ([9]; Gaeumannomyces graminis, 0.13 ppm, read-out: Actual fungal growth inhibition rate (%)): 94% | Actual fungal growth inhibition rate (%) ([9]; 0.03 ppm): 28% | Actual fungal growth inhibition rate (%) ([9]; 0.13 ppm): 93% | inhibition at 0.25 ppm [10]: 0% | inhibition at 0.01 ppm ([2]; Pyrenophora graminea, 0.01 ppm, read-out: Actual fungal growth inhibition rate (%)): 37% | inhibition at 0.03 ppm ([2]; Pyrenophora graminea, 0.03 ppm, read-out: Actual fungal growth inhibition rate (%)): 71% | inhibition at 0.5 ppm ([2]; Pyrenophora graminea, 0.50 ppm, read-out: Actual fungal growth inhibition rate (%)): 94% | Actual fungal growth inhibition rate (%) ([2]; 0.03 ppm): 70% and 68% | Actual fungal growth inhibition rate (%) ([2]; 0.13 ppm): 81% and 80% and 57% and 82% | Actual fungal growth inhibition rate (%) ([2]; 0.50 ppm): 95% and 93% | inhibition at 0.02 ppm ([3]; Cercospora beticola, 0.02 ppm, read-out: Actual growth inhibition rate): 0% | inhibition at 0.5 ppm ([3]; Cercospora beticola, 0.5 ppm, read-out: Actual growth inhibition rate): 6% | inhibition at 2.5 ppm ([3]; Cercospora beticola, 2.5 ppm, read-out: Actual growth inhibition rate): 99%
